Data as given in patent publication US7598244B2, “[1,2,4]triazolo[1,5,a]pyrimidin-2-ylurea derivative and use thereof” (Nippon Kayaku Kabushiki Kaisha, priority 2003, dated 2009).
Read-outs that look alike come from different tables or passages of the source.

Key:
[1] = system: mouse splenic cells; assay: Inhibitory action on blastogenesis of mouse splenic cells ([3H]-thymidine incorporation); format: cell-based; conditions: 72 hours
Description: Inhibitory Action on Blastogenesis of Mouse Splenic Cells
The spleen was excised from each of BALB/c mice (Charles River Japan; female; 10-week-old), and it was allowed to pass through a mesh to obtain a single cell suspension. This single cell suspension was prepared to be 1.0×10^6 cells/ml. Thereafter, 200 μl of the suspension was fractionated into each well of a 96-well plate. Thereafter, as blastogenic stimulation, 5 μg/ml concanavalin A (Pharmacia) or 25 μg/ml Escherichia coli-derived lipopolysaccharide (DIFCO) was added to the well, and then, a solution containing a test compound with each different concentration was further added thereto at an amount of 20 μl/well. The obtained mixture was cultured at 37° C. for 72 hours in an incubator containing 5% carbon dioxide. Thereafter, a 1 μCi/10 μl/well [^3H]-thymidine solution was added thereto 64 hours after initiation of the culture. After completion of the culture (72 hours later), the cells were captured on a filter using a cell harvester, and they were then dried. Thereafter, scintillator was added thereto, and the radioactivity of [^3H]-thymidine incorporated into the cells was then measured using a liquid scintillation counter. The inhibition rate of the DNA synthesis was calculated using the aforementioned formula (3). Thereafter, the concentration of a test compound necessary for inhibition of 50% (IC50 value) was obtained.

[2] = system: MHC class I molecules of T1 cells (human lymphoma cell line 174×CEM.); assay: Effect on expression of MHC class I from T1 cells (flow cytometry, MFI); format: cell-based; conditions: 3 days culture
How it was run: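 EC20 is the compound level that lowers MHC class I MFI by 20% relative to compound-free cultures. Read-out was flow cytometry after FITC W6/32 staining.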

[3] = system: (C57BL/6XB6. C—H2^bml) F1 mice; assay: Life-lengthening effect on graft versus host disease (GVHD); format: in vivo, mouse; conditions: oral, once a day
Description: Life-Lengthening Effect on Graft Versus Host Disease (GVHD)
The present test was carried out by modification of the method of Jonathan et al. (Jonathan et al., Blood, p. 93 (1999)). First, 6.0 Gy X-ray was applied to (C57BL/6XB6. C—H2^bml) F1 mice (produced by mating 6XB6.C—H2^bml mice (Jackson Laboratory) with C57BL/6 mice (Charles River Japan); female; 8 to 12-week-old). Thereafter, CD8 positive T cells (1.25×10^6 cells) prepared from the splenic cells of C57BL/6 mice (Charles River Japan; female; 8-week-old) were intravenously injected into the above (C57BL/6XB6. C—H2^bml) F1 mice. From the day before the injection, the test compound having each diluted concentration or 0.5% carboxymethyl cellulose used as a solvent was orally administered to the mice once a day for 7 to 30 consecutive days. The day on which the transplantation was conducted was defined as day 0. Based on the median of the survival days of each group, the prolongation rate of such survival dates was calculated using the following formula (7). Thus, the effect of the test compound on GVHD was analyzed.
[formula] • Eexp: Median of survival days of test compound administration group • Cexp: Median of survival days of solvent administration group

[4] = system: human dendritic cells cultured with human allogenic T cells; assay: Effect on the ability of human dendritic cells to induce the growth of allogenic T cells ([3H]-thymidine incorporation); format: cell-based; conditions: dendritic cells treated 3 days with test compound and TNF-α, then 5 days with allogenic T cells, read-out: IC50 (inhibition of DNA synthesis of lymphocytes)
Description: Effect on the Ability of Human Dendritic Cells to Induce the Growth of Allogenic T Cells
Immature dendritic cells were cultured with a test compound and TNF-α for 3 days by the same method as that described in Test Example 2. The obtained dendritic cells (2.5×10^3 cells/50 μl/well) were cultured together with human allogenic T cells (2.0×10^5 cells/150 μl/well) in a 96-well flat bottom plate at 37° C. for 5 days in an incubator containing 5% carbon dioxide. Thereafter, [^3H]-thymidine (Amersham Pharmacia Biotech) was added thereto at an amount of 1 μCi/10 μl/well, 16 hours before completion of the culture. After completion of the culture, cells were captured on a glass filter using a cell harvester (Skatron Instrument) and then dried. Thereafter, Scintillator ACS-II (Amersham Pharmacia Biotech) was added thereto, and the radioactivity of [^3H]-thymidine incorporated into the cells were then measured using a liquid scintillation counter. The inhibition rate of the DNA synthesis of lymphocytes was calculated using the following formula (3). Thereafter, the concentration of a test compound necessary for inhibition of 50% (IC50 value) was obtained.
[formula] • Eexp: The amount of [^3H]-thymidine incorporated into cultured cells containing test compound • Cexp: The amount of [^3H]-thymidine incorporated into cultured cells containing no test compounds

[5] = system: MHC class I molecules of human peripheral blood-derived dendritic cells; assay: Effect on expression of MHC class I molecules from human peripheral blood-derived dendritic cells; format: cell-based; conditions: dendritic cells matured with TNF-α, 3 days; read-out: EC50 (reduction of 50% of the number of cells wherein MHC class I molecules were highly expressed)
Description: Effect on Expression of MHC Class I Molecules from Human Peripheral Blood-Derived Dendritic Cells
Monocytes were isolated from human peripheral blood by the specific gravity centrifugation method. Thereafter, using mouse anti-human CD14 antibody-binding microbeads and a magnetic cell separation system (Miltenyi Biotec), CD14 positive cells were separated from the peripheral blood monocytes. The separated CD14 positive cells were suspended in an RPMI 1640 medium containing 10% FBS, and the suspension was then inoculated in a 6-well plate, resulting in a concentration of 1.0×10^6 cells/well. It was cultured at 37° C. for 20 minutes in an incubator containing 5% carbon dioxide. […] Thereafter, RPMI 1640 containing a 500 U/ml human recombinant […] (hereinafter referred to as GM-CSF; Anapure Bioscientific), 50 ng/ml human recombinant interleukin 4 (hereinafter referred to as IL-4; Pepro Tech), and 10% FBS, was added to the remaining suspension at a concentration of 2 ml/well. The obtained mixture was then cultured at 37° C. in an incubator containing 5% carbon dioxide. When adhesive CD14 positive cells are cultured in the presence of GM-CSF and IL-4, the CD14 positive cells were differentiated into non-adhesive immature dendritic cells. After the cells had been cultured for 7 days, non-adhesive cells were recovered to obtain immature dendritic cells. Using a 6-well plate, the immature dendritic cells (2.5×10^5 cells/well) were cultured in RPMI 1640 containing a 100 U/ml human recombinant tumor necrosis factor-α (hereinafter referred to as TNF-a; Pepro Tech), a test compound, and 10% FBS, at 37° C. for 3 days in an incubator containing 5% carbon dioxide. The dendritic cells became mature as a result of the presence of TNF-α, but in the present test, a test compound was allowed to simultaneously act on the cells. The mature dendritic cells were then stained with fluoroisothiocyanate-labeled mouse anti-human MHC class I monoclonal antibody (an antibody generated from the cell line W6/32 (ATCC No. CRL 1991)). The rate of the number of cells wherein MHC class I molecules were highly expressed to the total number of cells was measured by flow cytometry. The reduction rate of the number of cells wherein MHC class I molecules were highly expressed was calculated using the following formula (2), and the concentrations of test compounds necessary for reduction of 50% (EC50 values) were obtained.
[formula] • Eexp: (The number of cells, wherein MHC class I molecules are highly expressed, in cultured cells containing test compound)/(the total number of cells) • Cexp: (The number of cells, wherein MHC class I molecules are highly expressed, in cultured cells containing no test compounds)/(the total number of cells)

[6] = 5 μg/ml concanavalin A, read-out: Lymphocyte blastogenesis IC50 (μM), ConA stimulation
[7] = 25 μg/ml Escherichia coli-derived lipopolysaccharide, read-out: Lymphocyte blastogenesis IC50 (μM), LPS stimulation
[8] = Mus musculus, Lymphocyte, 5 μg/ml concanavalin A, read-out: Lymphocyte blastogenesis IC50 (μM), ConA stimulation
[9] = Mus musculus, Lymphocyte, 25 μg/ml Escherichia coli-derived lipopolysaccharide, read-out: Lymphocyte blastogenesis IC50 (μM), LPS stimulation

For `CC(C)NC(=O)Nc1nc2nccc(-c3cccc(OCC4CCCO4)c3)n2n1` (stereo not drawn) [Example 184], the IC50 [1, 6] was 0.63 µM, the IC50 [1, 7] was 0.29 µM and the “EC20 (concentration necessary for suppressing 20% of the expression level of MHC class I molecules)” value [2] was 0.21 µM.

In the case of `COc1ccc(-c2ccnc3nc(NC(=O)N[C@@H](C)CCCC(C)(C)O)nn23)cc1` [Example 319, (S)-1-(5-hydroxy-1,5-dimethylhexyl)-3-[7-(4-methoxyphenyl)-[1,2,4]triazolo[1,5-a]pyrimidin-2-yl]urea], the “Lengthening rate of survival days (%)” value ([3]; 10 mg/kg/single administration) is reported as 200%, the “Lengthening rate of survival days (%)” value ([3]; 50 mg/kg/single administration) is reported as 200% and the “EC20 (concentration necessary for suppressing 20% of the expression level of MHC class I molecules)” value [2] is reported as 0.02 µM.

Compound `CC(=O)c1cccc(NC(=O)Nc2nc3nccc(-c4cccs4)n3n2)c1` [Example 005] has an IC50 [4] of 0.65 µM.

`O=C(Nc1nc2nccc(-c3cccs3)n2n1)NC1CCCCC1` [Example 007] was tested, and the IC50 ([4]; Homo sapiens) was 0.97 µM, the EC50 [5] was 0.66 µM and the “EC20 (concentration necessary for suppressing 20% of the expression level of MHC class I molecules)” value [2] was 0.18 µM.

For `O=C(Nc1ccccc1)Nc1nc2nccc(-c3cccs3)n2n1` [Example 001, 1-phenyl-3-[(7-thiophen-2-yl)-[1,2,4]triazolo[1,5-a]pyrimidin-2-yl]urea], the IC50 ([4]; Homo sapiens) was 1.23 µM, the EC50 [5] was 0.46 µM and the “EC20 (concentration necessary for suppressing 20% of the expression level of MHC class I molecules)” value [2] was 1.1 µM.

Compound `COc1ccc(-c2ccnc3nc(NC(=O)N[C@@H](C)CCCC(C)C)nn23)cc1` [Example 160] has an IC50 [4] of 0.156 µM, an IC50 [1, 6] of 0.07 µM and an IC50 [1, 7] of 0.04 µM. For the same compound, the “EC20 (concentration necessary for suppressing 20% of the expression level of MHC class I molecules)” value [2] was 0.014 µM.

With `O=C(Nc1nc2nccc(-c3ccc(O)cc3)n2n1)NC1CCCCC1` [Example 024] the IC50 ([4]; Homo sapiens) was 0.82 µM, the EC50 [5] was 0.16 µM and the “EC20 (concentration necessary for suppressing 20% of the expression level of MHC class I molecules)” value [2] was 0.24 µM.

`COc1ccc(-c2ccnc3nc(NC(=O)N[C@@H](C)C(=O)OC(C)(C)C)nn23)cc1` [Example 049] was tested, and the IC50 ([4]; Homo sapiens) was 1.63 µM, the EC50 [5] was 0.21 µM and the “EC20 (concentration necessary for suppressing 20% of the expression level of MHC class I molecules)” value [2] was 0.23 µM.

`COc1ccc(-c2ccnc3nc(NC(=O)N[C@H](C(=O)NCCN(C)C)C(C)C)nn23)cc1` [Example 057] gave an IC50 [4] of 2.7 µM.

In the case of `COc1ccc(-c2ccnc3nc(NC(=O)NC4CCN(Cc5ccccc5)CC4)nn23)cc1` [Example 059], the EC50 [5] is reported as 0.53 µM and the “EC20 (concentration necessary for suppressing 20% of the expression level of MHC class I molecules)” value [2] is reported as 0.23 µM.

`COc1ccc(-c2ccnc3nc(NC(=O)NC4CCCCC4)nn23)cc1` [Example 015] was tested, and the IC50 ([4]; Homo sapiens) was 0.38 µM, the EC50 [5] was 0.13 µM and the “EC20 (concentration necessary for suppressing 20% of the expression level of MHC class I molecules)” value [2] was 0.045 µM.

For `COc1ccc(-c2ccnc3nc(NC(=O)NC(C(=O)NCC4CCCO4)C(C)C)nn23)cc1` (stereo not drawn) [Example 071], the EC50 [5] was 0.67 µM and the “EC20 (concentration necessary for suppressing 20% of the expression level of MHC class I molecules)” value [2] was 0.53 µM.

`COc1ccc(-c2ccnc3nc(NC(=O)NCCC(=O)NCC4CCCO4)nn23)cc1` (stereo not drawn) [Example 158] was tested, and the IC50 [4] was 0.69 µM and the “EC20 (concentration necessary for suppressing 20% of the expression level of MHC class I molecules)” value [2] was 0.39 µM.

With `COc1ccc(-c2ccnc3nc(NC(=O)N[C@H](C(=O)N4CCN(C)CC4)C(C)C)nn23)cc1` [Example 069] the EC50 [5] was 2.85 µM and the “EC20 (concentration necessary for suppressing 20% of the expression level of MHC class I molecules)” value [2] was 0.41 µM.

With `CC(C)NC(=O)Nc1nc2nccc(-c3cccc(OCCC4OCCCO4)c3)n2n1` [Example 183] the IC50 [1, 6] was 0.55 µM, the IC50 [1, 7] was 0.14 µM and the “EC20 (concentration necessary for suppressing 20% of the expression level of MHC class I molecules)” value [2] was 0.22 µM.

With `COc1ccc(-c2ccnc3nc(NC(=O)NCc4ccccc4)nn23)cc1` [Example 018] the EC50 [5] was 0.29 µM and the “EC20 (concentration necessary for suppressing 20% of the expression level of MHC class I molecules)” value [2] was 0.052 µM.

With `COc1ccc(-c2ccnc3nc(NC(=O)NC(C(=O)OC(C)(C)C)C(C)C)nn23)cc1` (stereo not drawn) [Example 045] the IC50 ([4]; Homo sapiens) was 0.28 µM, the EC50 [5] was 0.12 µM and the IC50 [1, 8] was 0.41 µM. For the same compound, the IC50 [1, 9] was 0.09 µM and the “EC20 (concentration necessary for suppressing 20% of the expression level of MHC class I molecules)” value [2] was 0.03 µM.

For `COc1ccc(-c2ccnc3nc(NC(=O)N[C@@H](C)c4ccccc4)nn23)cc1` [Example 101], the IC50 ([4]; Homo sapiens) was 0.625 µM, the EC50 [5] was 0.22 µM and the IC50 [1, 8] was 0.58 µM. For the same compound, the IC50 [1, 9] was 0.18 µM and the “EC20 (concentration necessary for suppressing 20% of the expression level of MHC class I molecules)” value [2] was 0.21 µM.

For `COc1ccc(-c2ccnc3nc(NC(=O)NC4CCCC4)nn23)cc1` [Example 027], the EC50 [5] was 0.22 µM and the “EC20 (concentration necessary for suppressing 20% of the expression level of MHC class I molecules)” value [2] was 0.067 µM.

`COc1ccc(-c2ccnc3nc(NC(=O)NC(C)C)nn23)cc1` [Example 030] was tested, and the IC50 ([4]; Homo sapiens) was 1.25 µM, the EC50 [5] was 0.48 µM and the “EC20 (concentration necessary for suppressing 20% of the expression level of MHC class I molecules)” value [2] was 0.4 µM.

With `COc1ccc(-c2ccnc3nc(NC(=O)NCCCN4CCOCC4)nn23)cc1` [Example 067] the EC50 [5] was 2.22 µM and the “EC20 (concentration necessary for suppressing 20% of the expression level of MHC class I molecules)” value [2] was 0.3 µM.
